This note sets out measurements from US10561739B2, “Targeted pyrrolobenzodiazapine conjugates” (priority 2010, dated 2020).

Format in all cases: cell-based
Series [1] concerns K562 human chronic myeloid leukaemia cells. As to the kind of experiment: K562 assay (MTT cytotoxicity). The conditions noted are these: drug incubation 1 hour or 96 hours. How it is done:
K562 human chronic myeloid leukaemia cells were maintained in RPM1 1640 medium supplemented with 10% fetal calf serum and 2 mM glutamine at 37° C. in a humidified atmosphere containing 5% CO2 and were incubated with a specified dose of drug for 1 hour or 96 hours at 37° C. in the dark. The incubation was terminated by centrifugation (5 min, 300 g) and the cells were washed once with drug-free medium. Following the appropriate drug treatment, the cells were transferred to 96-well microtiter plates (10^4 cells per well, 8 wells per sample). Plates were then kept in the dark at 37° C. in a humidified atmosphere containing 5% CO2. The assay is based on the ability of viable cells to reduce a yellow soluble tetrazolium salt, 3-(4,5-dimethylthiazol-2-yl)-2,5-diphenyl-2H-tetrazolium bromide (MTT, Aldrich-Sigma), to an insoluble purple formazan precipitate. Following incubation of the plates for 4 days (to allow control cells to increase in number by approximately 10 fold), 20 μL of MTT solution (5 mg/mL in phosphate-buffered saline) was added to each well and the plates further incubated for 5 h. The plates were then centrifuged for 5 min at 300 g and the bulk of the medium pipetted from the cell pellet leaving 10-20 μL per well. […] The optical density was then read at a wavelength of 550 nm on a Titertek Multiscan ELISA plate reader, and a dose-response curve was constructed. […]

In series [2] the test system is 786-O cells. In words: Free drug 48 hour Cell Titer Glo cytotoxicity, 786-O. To be noted: Homo sapiens, 786-0, Table 3, 48 hours, read-out: IC50 Summary for Free Drugs, 786-O. Here is the method: (§1) Referring to the following Table 3, the activities of compounds 23, 25, are compared to that of compound 11 on 786-O, Caki-1, MCF-7, HL-60, THP-1, HEL, and TF1 cells. Cells were plated in 150 μL growth media per well into black-sided clear-bottom 96-well plates (Costar, Corning) and allowed to settle for 1 hour in the biological cabinet before placing in the incubator at 37° C., 5% CO2. The following day, 4× concentration of drug stocks were prepared, and then titrated as 10-fold serial dilutions producing 8-point dose curves and added at 50 μl per well in duplicate. Cells were then incubated for 48 hours at 37° C., 5% CO2. Cytotoxicity was measure by incubating with 100 μL Cell Titer Glo (Promega) solution for 1 hour, and then luminescence was measured on a Fusion HT plate reader (Perkin Elmer). Data was processed with Excel (Microsoft) and GraphPad (Prism) to produce dose response curves and IC50 values were generated and data collected.
In general terms: Cellular ATP, detected with luciferase, serves as a proxy for viable cell number.

The subject of series [3] is Caki-1 cells. As to the kind of experiment: Free drug 48 hour Cell Titer Glo cytotoxicity, Caki-1. The conditions noted are these: Homo sapiens, Table 3, 48 hours, read-out: IC50 Summary for Free Drugs, Caki-1. How it is done: as §1
Series [4] concerns MCF-7 cells. In words: Free drug 48 hour Cell Titer Glo cytotoxicity, MCF-7. To be noted: Homo sapiens, MCF7, Table 3, 48 hours, read-out: IC50 Summary for Free Drugs, MCF-7. Here is the method:
as §1

For series [5], the system named is HL-60 cells. As to the kind of experiment: Free drug 48 hour Cell Titer Glo cytotoxicity, HL-60. To be noted: Homo sapiens, Table 3, 48 hours, read-out: IC50 Summary for Free Drugs, HL-60. Here is the method:
as §1

Series [6] has as its system THP-1 cells. As to the kind of experiment: Free drug 48 hour Cell Titer Glo cytotoxicity, THP-1. To be noted: Homo sapiens, Table 3, 48 hours, read-out: IC50 Summary for Free Drugs, THP-1. Here is the method: as §1
Series [7] relates to HEL cells. In words: Free drug 48 hour Cell Titer Glo cytotoxicity, HEL. To be noted: Homo sapiens, Table 3, 48 hours, read-out: IC50 Summary for Free Drugs, HEL. How it is done: as §1
Series [8] concerns TF1a cells. In words: Free drug 48 hour Cell Titer Glo cytotoxicity, TF1a. To be noted: TF-1a, Table 3, 48 hours, read-out: IC50 Summary for Free Drugs, TF1a. Here is the method:
as §1

In series [9] the test system is MCF-7 cells. In words: Free drug cytotoxicity assay, MCF-7 (Table 2). To be noted: Homo sapiens. Here is the method: (§2) For a 96-hour assay, cells cultured in log-phase growth were seeded for 24 h in 96-well plates containing 150 μL RPMI 1640 supplemented with 20% FBS. Serial dilutions of test article (i.e., free drug) in cell culture media were prepared at 4× working concentration; 50 μL of each dilution was added to the 96-well plates. Following addition of test article, the cells were incubated with test articles for 4 days at 37° C. Resazurin was then added to each well to achieve a 50 μM final concentration, and the plates were incubated for an additional 4 h at 37° C. The plates were then read for the extent of dye reduction on a Fusion HT plate reader (Packard Instruments, Meridien, Conn., USA) with excitation and emission wavelengths of 530 and 590 nm, respectively. The IC50 value, determined in triplicate, is defined here as the concentration that results in a 50% reduction in cell growth relative to untreated controls.
Referring to the following Table 2, the activity of compounds 28, 30 and 32 is shown on L428, 786-O, HEL, HL-60 and MCF-7 cells, as well as the activity for compound 19 on MCF-7 cells.

The subject of series [10] is 786-O renal cell carcinoma cell line (CD70+). As to the kind of experiment: ADC 96-hour resazurin cytotoxicity assay, 786-O. Here is the method: (§3) The in vitro cytotoxic activity of the selected antibody drug conjugates was assessed using a resazurin (Sigma, St. Louis, Mo., USA) reduction assay (reference: Doronina et al., Nature Biotechnology, 2003, 21, 778-784). The antibody drug conjugates were prepared as described above in Example 13.
as §2, with “For the” for “For a”, “of ADC” for “of test article (i.e., free drug)”, “of ADC,” for “of test article,”
On the technique in general: The colour change of resazurin is a common sign of viable cells or microbes.

Series [11] has as its system L428 Hodgkin lymphoma cell line (CD70+/30+). As to the kind of experiment: ADC 96-hour resazurin cytotoxicity assay, L428. How it is done:
as §3
as §2, with “For the” for “For a”, “of ADC” for “of test article (i.e., free drug)”, “of ADC,” for “of test article,”

Series [12] concerns control (AML cell line). As to the kind of experiment: ADC 96-hour resazurin cytotoxicity assay, control line of Table 7. Here is the method: as §3
as §2, with “For the” for “For a”, “of ADC” for “of test article (i.e., free drug)”, “of ADC,” for “of test article,”
Referring to Table 7, the in vitro cytotoxicity of ADCs containing PBD dimers on CD70^+ cell lines using the 96 hour assay is shown. […]

In the case of `COc1ccc(C2=CN3C(=O)c4cc(OC)c(OCCCCCOc5cc6c(cc5OC)C(=O)N5C=C(c7ccc(N)cc7)C[C@H]5C=N6)cc4N=C[C@@H]3C2)cc1` [Compound 13, (S)-2-(4-aminophenyl)-7-methoxy-8-(5-((S)-7-methoxy-2-(4-methoxyphenyl)-5-oxo-5,11a-dihydro-1H-pyrrolo[2,1-c][1,4]benzodiazepine-8-yloxy)pentyloxy)-H-pyrrolo[2,1-c][1,4]benzodiazepine-5(11aH)-one], half-maximal inhibition in series [1] (IC50) was put at 30 pM.
Turning to `COc1ccc(C2=CN3C(=O)c4cc(OC)c(OCCCCCOc5cc6c(cc5OC)C(=O)N5C=C(c7ccc(O)cc7)C[C@H]5C=N6)cc4N=C[C@@H]3C2)cc1` [Compound 23, (S)-2-(4-hydroxyphenyl)-7-methoxy-8-(5-((S)-7-methoxy-2-(4-methoxyphenyl)-5-oxo-5,11a-dihydro-1H-pyrrolo[2,1-c][1,4]benzodiazepin-8-yloxy)pentyloxy)-1H-pyrrolo[2,1-c][1,4]benzodiazepine-5(11aH)-one], the concentration for half-maximal inhibition (IC50) (usually the concentration that gives 50% inhibition) in series [2] worked out at 60 pM; in series [3], 20 pM; in series [4] it was 700 pM; in series [5], 5 pM; in [6], 400 pM; in series [7], 9 pM. In [8], the IC50 stood at 200 pM.
Consider `COc1ccc(C2=CN3C(=O)c4cc(OC)c(OCCCCCOc5cc6c(cc5OC)C(=O)N5C=C(c7ccc(C=O)cc7)C[C@H]5C=N6)cc4N=C[C@@H]3C2)cc1` [Compound 25, 4-((S)-7-methoxy-8-(5-((S)-7-methoxy-2-(4-methoxyphenyl)-5-oxo-5,11a-dihydro-1H-pyrrolo[2,1-c][1,4]benzodiazepin-8-yloxy)pentyloxy)-5-oxo-5,11a-dihydro-1H-pyrrolo[2,1-c][1,4]benzodiazepine-2-yl)benzaldehyde], for which the 50% inhibitory concentration (IC50) in series [2] was 90 pM; in series [3], 60 pM; in series [4], 800 pM; in [5], 10 pM; in series [6], 900 pM; in [7] it was 20 pM. In addition, in series [8], the IC50 stood at 900 pM.
As to `COc1cc2c(cc1OCCCCCOc1cc3c(cc1OC)C(=O)N1C=C(c4cccc(N)c4)C[C@H]1C=N3)N=C[C@@H]1CC(c3ccc(N4CCN(C)CC4)cc3)=CN1C2=O` [Compound 30, (S)-2-(3-aminophenyl)-7-methoxy-8-(5-((S)-7-methoxy-2-(4-(4-methylpiperazin-1-yl)phenyl)-5-oxo-5,11a-dihydro-H-pyrrolo[2,1-c][1,4]benzodiazepin-8-yloxy)pentyloxy)-1H-pyrrolo[2,1-c][1,4]benzodiazepine-5(11aH)-one], the IC50 in series [9] (MCF7, Table 2, read-out: IC50 Summary for Free Drugs, MCF-7) amounted to 10 pM.
For the molecule `COc1ccc(C2=CN3C(=O)c4cc(OC)c(OCCCOc5cc6c(cc5OC)C(=O)N5C=C(c7ccc(CN)cc7)C[C@H]5C=N6)cc4N=C[C@@H]3C2)cc1` [Compound 32, (S)-2-(4-(aminomethyl)phenyl)-7-methoxy-8-(3-((S)-7-methoxy-2-(4-methoxyphenyl)-5-oxo-5,11a-dihydro-1H-pyrrolo[2,1-c][1,4]benzodiazepine-8-yloxy)propyloxy)-1H-pyrrolo[2,1-c][1,4]benzodiazepine-5(11aH)-one], in series [9] (MCF7, read-out: IC50 Summary for Free Drugs, MCF-7), the half-inhibitory concentration (IC50) is 1000 pM.

B1: h1F6-44 (3.5 dr/mAb) (conjugate, chains of the INN, looked up)
VH: QVQLVQSGAEVKKPGASVKVSCKASGYTFTNYGMNWVRQAPGQGLKWMGWINTYTGEPTYADAFKGRVTMTRDTSISTAYMELSRLRSDDTAVYYCARDYGDYGMDYWGQGTTVTVSS
VL: DIVMTQSPDSLAVSLGERATINCRASKSVSTSGYSFMHWYQQKPGQPPKLLIYLASNLESGVPDRFSGSGSGTDFTLTISSLQAEDVAVYYCQHSREVPWTFGQGTKVEIK
modifications: drug-linker 44 conjugate, 3.5 drugs/mAb
Turning to B1, the “In vitro cytotoxic activity (IC50), 786-O” value in series [10] came out at 1.124 µg/mL. Besides, in series [11], the “In vitro cytotoxic activity (IC50), L428” value came out at 2.142 µg/mL.

B2: h1F6- 43(4 dr/rnAb) (conjugate, chains of the INN, looked up)
VH: B1 VH
VL: B1 VL
modifications: drug-linker 43, 4 drugs/mAb
As to B2, the “In vitro cytotoxic activity (IC50), 786O” value in [10] turned out to be 0.011 µg/mL. Moreover, the “In vitro cytotoxic activity (IC50), L428” value in [11] is 0.404 µg/mL. In addition, the “In vitro cytotoxic activity (IC50), control” value in series [12] amounted to 1.205 µg/mL.

B3: h1F6 54 (4 dr/rnAb) (conjugate, chains of the INN, looked up)
VH: B1 VH
VL: B1 VL
modifications: drug-linker 54, 4 drugs/mAb
Turning to B3, in series [10], the “In vitro cytotoxic activity (IC50), 786O” value is on record as “No effect”. The “In vitro cytotoxic activity (IC50), L428” value in [11] is reported as “No effect”. Also, in series [12], the “In vitro cytotoxic activity (IC50), control” value is on record as “No effect”.
